Assay results as given in ChEMBL document CHEMBL1201862, “PubChem BioAssay data set” (2004).
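96-well plates; 48 h exposure; 5 concentrations. Endpoints by linear interpolation between flanking doses. Not reached: highest tested concentration assigned. Abbreviation: GI50, concentration required for 50% inhibition of growth.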 Calls of active or inactive are those of the source. Cut-off read from the data, not from the text of the source: active = GI50 up to about 1.1 µM and inactive = higher.

Legend:
Assay in all cases: DTP human tumour cell line panel, 48 h
[1] = system: KM12
[2] = system: UACC-257
[3] = system: SF-539
[4] = system: MDA-MB-435
[5] = system: NCI-H522
[6] = system: ACHN
[7] = system: HL-60
[8] = system: CCRF-CEM
[9] = system: EKVX
[10] = system: PC-3
[11] = system: K562
[12] = system: UACC-62
[13] = system: SF-268
[14] = system: MDA-N
[15] = system: SW-620
[16] = system: NCI-H23
[17] = system: SK-OV-3
[18] = system: SK-MEL-5
[19] = system: SR
[20] = system: RPMI-8226
[21] = system: SNB-75
[22] = system: OVCAR-8
[23] = system: 786-0
[24] = system: BT-549
[25] = system: MCF7
[26] = system: SF-295
[27] = system: LOX IMVI
[28] = system: HOP-92
[29] = system: MDA-MB-231
[30] = system: HCT-116
[31] = system: SK-MEL-2
[32] = system: UO-31
[33] = system: SN12C
[34] = system: NCI-H226
[35] = system: SK-MEL-28
[36] = system: HT-29
[37] = system: HCT-15
[38] = system: HCC 2998
[39] = system: NCI-H460
[40] = system: OVCAR-3
[41] = system: MOLT-4
[42] = system: CAKI-1
[43] = system: A498
[44] = system: IGROV-1
[45] = system: DU-145
[46] = system: A549
[47] = system: M14
[48] = system: OVCAR-5
[49] = system: Malme-3M
[50] = system: T47D
[51] = system: TK-10
[52] = system: NCI/ADR-RES
[53] = system: HOP-62
[54] = system: SNB-19
[55] = system: RXF 393
[56] = system: Hs-578T
[57] = system: U-251
[58] = system: COLO 205
[59] = system: OVCAR-4

Structure (SMILES): CC1OC(c2ccc3c(c2O)C(=O)C2=C(C3=O)C3(O)C(=O)CC(C)(O)CC3(O)C=C2)CC(O)C1O (stereo not drawn)
- GI50 [1]: 21.3 µM (inactive)
- GI50 [2]: 15 µM (inactive)
- GI50 [3]: 17.7 µM (inactive)
- GI50 [4]: 10.6 µM (inactive)
- GI50 [5]: 2.34 µM (inactive)
- GI50 [6]: 13.6 µM (inactive)
- GI50 [7]: 1.98 µM (inactive)
- GI50 [8]: 2.05 µM (inactive)
- GI50 [9]: 16 µM (inactive)
- GI50 [10]: 23.3 µM (inactive)
- GI50 [11]: 2.7 µM (inactive)
- GI50 [12]: 14.9 µM (inactive)
- GI50 [13]: 21.2 µM (inactive)
- GI50 [14]: 3.23 µM (inactive)
- GI50 [15]: 7.98 µM (inactive)
- GI50 [16]: 20.6 µM (inactive)
- GI50 [17]: 41.3 µM (inactive)
- GI50 [18]: 11 µM (inactive)
- GI50 [19]: 10.2 µM (inactive)
- GI50 [20]: 9.73 µM (inactive)
- GI50 [21]: 18.2 µM (inactive)
- GI50 [22]: 14.1 µM (inactive)
- GI50 [23]: 16.8 µM (inactive)
- GI50 [24]: 18.7 µM (inactive)
- GI50 [25]: 2.79 µM (inactive)
- GI50 [26]: 16.6 µM (inactive)
- GI50 [27]: 14 µM (inactive)
- GI50 [28]: 14.7 µM (inactive)
- GI50 [29]: 2.25 µM (inactive)
- GI50 [30]: 5.26 µM (inactive)
- GI50 [31]: 20.5 µM (inactive)
- GI50 [32]: 17.1 µM (inactive)
- GI50 [33]: 15 µM (inactive)
- GI50 [34]: 19.8 µM (inactive)
- GI50 [35]: 15.7 µM (inactive)
- GI50 [36]: 5.4 µM (inactive)
- GI50 [37]: 14.5 µM
- GI50 [38]: 15.5 µM (inactive)
- GI50 [39]: 24.2 µM (inactive)
- GI50 [40]: 5.35 µM (inactive)
- GI50 [41]: 3.81 µM (inactive)
- GI50 [42]: 7.28 µM (inactive)
- GI50 [43]: 18.2 µM (inactive)
- GI50 [44]: 13.4 µM (inactive)
- GI50 [45]: 15.6 µM (inactive)
- GI50 [46]: 26.3 µM (inactive)
- GI50 [47]: 16.1 µM (inactive)
- GI50 [48]: 17 µM (inactive)
- GI50 [49]: 2.99 µM (inactive)
- GI50 [50]: 11.5 µM (inactive)
- GI50 [51]: 15.1 µM (inactive)
- GI50 [52]: 19.5 µM (inactive)
- GI50 [53]: 26.8 µM (inactive)
- GI50 [54]: 18.4 µM (inactive)
- GI50 [55]: 11.4 µM (inactive)
- GI50 [56]: 20.1 µM (inactive)
- GI50 [57]: 16.7 µM (inactive)
- GI50 [58]: 1.75 µM (inactive)
- GI50 [59]: 13.7 µM (inactive)

Structure (SMILES): C=C1C(=O)C[C@H]2C(=C)C(=O)O[C@@H]2C2C1CC[C@@]2(C)O (stereo partly drawn)
- GI50 [1]: 50 µM (inactive)
- GI50 [2]: 21.5 µM (inactive)
- GI50 [3]: 26.8 µM (inactive)
- GI50 [4]: 30.3 µM (inactive)
- GI50 [5]: 12.7 µM (inactive)
- GI50 [6]: 12.2 µM (inactive)
- GI50 [7]: > 100 µM (inactive)
- GI50 [8]: > 100 µM (inactive)
- GI50 [9]: 62.8 µM (inactive)
- GI50 [10]: 30.6 µM (inactive)
- GI50 [11]: 16.3 µM (inactive)
- GI50 [12]: 14.9 µM (inactive)
- GI50 [13]: > 100 µM (inactive)
- GI50 [14]: 29.7 µM (inactive)
- GI50 [15]: 23 µM (inactive)
- GI50 [16]: 24.9 µM (inactive)
- GI50 [17]: > 100 µM (inactive)
- GI50 [18]: 39.4 µM (inactive)
- GI50 [19]: 27.1 µM (inactive)
- GI50 [20]: 7.98 µM (inactive)
- GI50 [21]: > 100 µM (inactive)
- GI50 [22]: 31.7 µM (inactive)
- GI50 [23]: 19.9 µM (inactive)
- GI50 [24]: 19.8 µM (inactive)
- GI50 [25]: 16 µM (inactive)
- GI50 [26]: > 100 µM (inactive)
- GI50 [27]: 17.5 µM (inactive)
- GI50 [28]: 26.4 µM (inactive)
- GI50 [29]: 25.1 µM (inactive)
- GI50 [30]: 31.8 µM (inactive)
- GI50 [31]: 21.5 µM (inactive)
- GI50 [32]: 23.2 µM (inactive)
- GI50 [33]: 42.6 µM (inactive)
- GI50 [34]: 22.2 µM (inactive)
- GI50 [35]: 27.4 µM (inactive)
- GI50 [36]: 20 µM (inactive)
- GI50 [37]: 17.7 µM
- GI50 [38]: 19 µM (inactive)
- GI50 [39]: 18.8 µM (inactive)
- GI50 [40]: 16.1 µM (inactive)
- GI50 [41]: 23.2 µM (inactive)
- GI50 [42]: 16.7 µM (inactive)
- GI50 [43]: > 100 µM (inactive)
- GI50 [44]: 33.1 µM (inactive)
- GI50 [45]: 73.3 µM (inactive)
- GI50 [46]: 44.4 µM (inactive)
- GI50 [47]: 16.1 µM (inactive)
- GI50 [48]: 32.8 µM (inactive)
- GI50 [49]: 16.3 µM (inactive)
- GI50 [50]: 28.2 µM (inactive)
- GI50 [51]: 21.1 µM (inactive)
- GI50 [52]: 26.2 µM (inactive)
- GI50 [53]: 31.3 µM (inactive)
- GI50 [54]: > 100 µM (inactive)
- GI50 [55]: 15.4 µM (inactive)
- GI50 [56]: 26.9 µM (inactive)
- GI50 [57]: 45.6 µM (inactive)
- GI50 [58]: 14.5 µM (inactive)
- GI50 [59]: > 10 µM (inactive)
